The source of these data is patent US20140090094A1, “MODULATORS OF SLC22A7” (BAYER INTELLECTUAL PROPERTY GmbH, priority 2011, published 2014).

For data set [1] the following is noted: cited from earlier work.
The subject of data set [2] is 293 cells. Nature of the data set: uptake into uninduced control 293 cells (expression off). The format is cell-based, human. The note with it: for clearance kin: 10 μmol/l unlabeled substrate. The protocol: Time course of trigonelline uptake. Cells grown in dishes were incubated at 37° C. with 10 μmol/l unlabeled trigonelline in uptake buffer for the indicated periods, washed, and lysed. The function for non-linear regression was y=y0+kin/kout*cout*(1−exp(−kout*x)); parameter y0 allows for trigonelline accumulation from the culture medium.
293 cells (ATCC CRL-1573; also known as HEK-293 cells), a transformed cell line derived from human embryonic kidney, were grown at 37° C. in a humidified atmosphere (5% CO2) in plastic culture flasks (Falcon 3112, Becton Dickinson, Heidelberg, Germany). The growth medium was Dulbecco's Modified Eagle Medium (Life Technologies 31885-023, Invitrogen, Karlsruhe, Germany) supplemented with 10% fetal calf serum (PAA Laboratories, Cölbe, Germany). Medium was changed every 2-3 days and the culture was split every 5 days. Stably transfected cell lines were generated as reported previously (Bach M et al. FEBS Journal 2007; 274:783-790.). As there is no integration of vector pEBTetD into the genome, clonal isolation of transfected cells is not necessary; we thus use cell pools rather than single cell clones. Cell culture medium always contained 3 μg/ml puromycin (PAA Laboratories) to ascertain plasmid maintenance. To turn on protein expression, cells were cultivated for at least 20 h in regular growth medium supplemented with 1 μg/ml doxycycline (195044, MP Biomedicals, Eschwege, Germany).
For measurement of solute uptake, cells were grown in surface culture on 60 mm polystyrol dishes (Nunclon 150288, Nunc, Roskilde, Denmark) precoated with 0.1 g/l poly-L-ornithine in 0.15 M boric acid-NaOH, pH 8.4. Cells were used for uptake experiments at a confluence of at least 70%. Uptake was measured at 37° C. Uptake buffer contains 125 mmol/l NaCl, 25 mmol/l HEPES-NaOH pH 7.4, 5.6 mmol/l (+)glucose, 4.8 mmol/l KCl, 1.2 mmol/l KH2PO4, 1.2 mmol/l CaCl2, and 1.2 mmol/l MgSO4. In glutamate efflux experiments, uptake buffer without KH2PO4 was used to avoid MS interference. After preincubation for at least 20 minutes in 4 ml of uptake buffer, the buffer was replaced with 2 ml of substrate in uptake buffer. The total substrate concentration if not indicated otherwise was 0.1 μmol/l for radiotracer assays and 10 μmol/l for unlabeled compounds. Incubation was stopped after 1 min by rinsing the cells four times each with 4 ml ice-cold uptake buffer. Radioactivity was determined, after cell lysis with 0.1% v/v Triton X-100 in 5 mmol/l TRIS-HCl pH 7.4, by liquid scintillation counting. For LCelectrospray ionization-MS/MS analysis, cells were lysed with methanol and stored at −20° C.
After centrifugation (1 min, 16000×g, 20° C.) of thawed lysates, 100 μl of the supernatant was mixed with either 10 μl unlabeled MPP+ iodide (0.5 ng/μl) or biphenyl-4-carboxylic acid (Sigma-Aldrich) as internal standard. Of this mixture, […] were analyzed by LCMS/MS on a triple quadrupole mass spectrometer (4000 Q TRAP, Applied Biosystems, Darmstadt, Germany). […] Atmospheric pressure ionization with positive or negative electrospray was used. For quantification (scan time 150 ms), the optimal collision energy for argon-induced fragmentation in the second quadrupole was determined for each analyte. […] Linear calibration curves were constructed from at least six standards which were prepared using control cell lysates as solvent. Sample analyte content was calculated from the analyte response ratio and the slope of the calibration curve, obtained by linear regression. With LC-MS quantitation, solute content of cell lysates was determined for 4 conditions (paired dishes, incubation time 1 min): a) transporter expression on, uptake buffer; b) expression off, uptake buffer; c) expression on, substrate in uptake buffer; d) expression off, substrate in uptake buffer. Acute uptake mediated by heterologously expressed carrier was then calculated as (c−a)−(d−b). This approach takes into account endogenous solute content and non-specific uptake.

In data set [3] the target is OAT2h splice variant E131_W132insSQ (Homo sapiens, UniProt Q9Y694). The note with it: initial rate 1 min, 37° C., 10 μmol/l, LC-MS/MS, uptake buffer in the expression period. The protocol:
A substrate search by LC-MS difference shading was performed with 293 cells stably transfected to express OAT2 from rat. […] To verify that trigonelline is directly transported by OAT2 and not just increased indirectly, initial rates of uptake (1 min, 37° C.) of trigonelline (10 μmol/l) were determined by LC-MS/MS.
For measurement of solute uptake, cells were grown in surface culture on 60 mm polystyrol dishes (Nunclon 150288, Nunc, Roskilde, Denmark) precoated with 0.1 g/l poly-L-ornithine in 0.15 M boric acid-NaOH, pH 8.4. Cells were used for uptake experiments at a confluence of at least 70%. Uptake was measured at 37° C. […] Radioactivity was determined, after cell lysis with 0.1% v/v Triton X-100 in 5 mmol/l TRIS-HCl pH 7.4, by liquid scintillation counting. […]
After centrifugation (1 min, 16000×g, 20° C.) of thawed lysates, 100 μl of the supernatant was mixed with either 10 μl unlabeled MPP+ iodide (0.5 ng/μl) or biphenyl-4-carboxylic acid (Sigma-Aldrich) as internal standard. Of this mixture, […] were analyzed by LCMS/MS on a triple quadrupole mass spectrometer (4000 Q TRAP, Applied Biosystems, Darmstadt, Germany). […] For quantification (scan time 150 ms), the optimal collision energy for argon-induced fragmentation in the second quadrupole was determined for each analyte. […] Acute uptake mediated by heterologously expressed carrier was then calculated as (c−a)−(d−b). […]

The mark [4] stands for this setting: time course, uninduced control cells.

As for `O=C(O)c1cc(=O)[nH]c(=O)[nH]1` [orotic acid], in data set [1], the pKa entry is given as “≈ 2.4”. This molecule showed an intracellular content in data set [2] (10 μmol/l unlabeled orotic acid, after 60 min, cells lacking the transporter) of 0.05 nmol/mg protein. In data set [2] (1 h, 37° C. preloading with 100 μmol/l 3H-orotic acid, uninduced control cells, n=4), the “cell content directly after washing” value amounted to 3.5±0.1 nmol/mg protein. Moreover, the “non-specific uptake into control cells, slope” value in data set [2] (saturation experiment, 1 min, expression off) is 0.56 μl min-1 mg protein-1. The same molecule gave a clearance kin in data set [2] (setting [4]) of 0.58±0.12 μl min-1 mg protein-1. This molecule also registered a kout in data set [2] (time course, unlabeled orotic acid, expression off) of 0.12 ± 0.03 min⁻¹.
With `C[n+]1cccc(C(=O)[O-])c1` [trigonelline], the carrier-mediated clearance in data set [3] turned out to be 2.5±0.9 μl min-1 mg protein-1. Moreover, the clearance kin in data set [2] (setting [4]) amounted to 0.11±0.01 μl min-1 mg protein-1.
